This is an account of results in patent EP0015817A1, “Piperidine derivatives, process for their preparation and their use in therapeutical compositions” (METABIO-JOULLIE Société anonyme:, priority 1979, dated 1980).

The structures appear in SMILES notation. pIC50: −log10 of the molar value. Read-outs that look alike come from different tables or passages of the source.

One series has as its system duodénum isolé de rat. Put plainly: Antispasmodic action: antagonism of barium chloride-induced contraction on isolated rat duodenum (Magnus method). The settings on record: for pIC50: read-out: Concentrations molaires inhibitrices 50 %. The protocol:
Les essais sont effectués sur le duodénum isolé de rat en survie dans du liquide de Tyrode oxygéné et à température de 37°C (cuve de 20 ml, bain- marie à organes isolés type Valette).
Le tonus et les mouvements de l'organe isolé sont enregistrés par la méthode de Magnus (R.) (Arch. Ges. Physiol. 1904, 102; 123) à l'aide d'une jauge de contrainte reliée à un enregistreur électronique Electromed.
L'antagonisme exercé par le produit étudié est recherché vis-à-vis des effets contracturants musculotropes du chlorure de baryum.
La papavérine est utilisée comme substance antagoniste de référence.
On détermine la concentration molaire du produit qui diminue de 50 % les effets du chlorure de baryum.

A short description of series [1]: Acute toxicity (LD50) in mice. The settings on record: mouse, in vivo, souris Swiss NMRI, read-out: DL50 (the source's name). The protocol: La DL50 a été déterminée chez la souris Swiss NMRI sur le bromhydrate de la benzyloxy-4 pipéridine : - voie orale DL50 75 mg/kg - voie I.V. DL50 32,5 mg/kg

As for `COc1ccc(Cc2nccc3cc(OC)c(OC)cc23)cc1OC` [Papavérine, reference compound], the pIC50 with duodénum isolé de rat (Rattus norvegicus) was 4.90.
For the compound `c1ccc(COC2CCNCC2)cc1` [Benzyloxy-4 pipéridine (bromhydrate), Bromhydrate de benzyloxy-4 pipéridine], the LD50 in series [1] (iv, voie I.V.) is 32.5 mg/kg; in series [1] (po, voie orale) it was 75 mg/kg. Also, the pIC50 in the series with duodénum isolé de rat (concentration reducing by 50 % the effects of chlorure de baryum, isolated rat duodenum in oxygenated Tyrode, 37°C) is 4.74. In addition, in the series on duodénum isolé de rat (qualitative comparison with papavérine, chlorure de baryum contraction, isolated rat duodenum), the “activité antispasmodique comparée à celle de la papavérine” value is “sensiblement égale à celle de la papavérine”.
